{"source": "patent US20100267561A1", "about": "“HERBICIDAL PYRIDAZINONE DERIVATIVES” (priority 2007, published 2010)", "assay_in_all_cases": "Test B pre-/postemergence plant response", "type_in_all_cases": "in vivo", "key": {"[1]": {"system": "wild oat (Avena fatua)", "procedure,_shortened": "(§1)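 Seeds were sown and sprayed preemergence, while plants at 2 to 18 cm (1- to 4-leaf stage) got postemergence sprays. Compounds were formulated in a non-phytotoxic solvent mixture with surfactant. After 13 to 15 days in a greenhouse, injury was rated visually against untreated controls, 0 (no effect) to 100 (complete control).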"}, "[2]": {"system": "cocklebur (Xanthium strumarium)", "details": "for Cocklebur plant response rating: 8 g ai/ha", "procedure,_shortened": "as §1"}, "[3]": {"system": "blackgrass (Alopecurus myosuroides)", "details": "for Blackgrass plant response rating: 8 g ai/ha", "procedure,_shortened": "as §1"}, "[4]": {"system": "green foxtail (Setaria viridis)", "procedure,_shortened": "as §1"}, "[5]": {"system": "pigweed (Amaranthus retroflexus)", "procedure,_shortened": "as §1"}, "[6]": {"system": "common ragweed (Ambrosia elation)", "procedure,_shortened": "as §1"}, "[7]": {"system": "kochia (Kochia scoparia)", "procedure,_shortened": "as §1"}, "[8]": {"system": "yellow nutsedge (Cyperus esculentus)", "procedure,_shortened": "as §1"}, "[9]": {"system": "large crabgrass (Digitaria sanguinalis)", "procedure,_shortened": "as §1"}, "[10]": {"system": "corn (Zea mays)", "procedure,_shortened": "as §1"}, "[11]": {"system": "lambsquarters (Chenopodium album)", "procedure,_shortened": "as §1"}, "[12]": {"system": "woolly cupgrass (Eriochloa villosa)", "procedure,_shortened": "as §1"}, "[13]": {"system": "catchweed bedstraw (Galium aparine)", "details": "Preemergence, scale 0 to 100", "procedure,_shortened": "as §1"}, "[14]": {"system": "velvetleaf (Abutilon theophrasti)", "procedure,_shortened": "as §1"}, "[15]": {"details": "8 g ai/ha, postemergence, 0-100 scale"}, "[16]": {"details": "Postemergence, 16 g ai/ha, scale 0 to 100"}, "[17]": {"details": "Postemergence, 31 g ai/ha, scale 0 to 100"}, "[18]": {"details": "Postemergence, 62 g ai/ha, scale 0 to 100, 0 no effect, 100 complete control"}, "[19]": {"details": "Preemergence, 31 g ai/ha, scale 0 to 100 (0 no effect, 100 complete control)"}, "[20]": {"details": "Preemergence, 62 g ai/ha, scale 0 to 100"}, "[21]": {"details": "Preemergence, 8 g ai/ha, scale 0 to 100"}, "[22]": {"details": "Preemergence, 16 g ai/ha, scale 0 to 100"}, "[23]": {"details": "Preemergence, 16 g ai/ha, scale 0 to 100 (0 no effect, 100 complete control)"}, "[24]": {"details": "Preemergence, 31 g ai/ha, 0 to 100 scale, 0 no effect, 100 complete control"}}, "data": [{"smiles": "Cc1cc(-c2ccc(Cl)cc2)nn1-c1c(OC(=O)Oc2ccccc2)cnn(C)c1=O", "note": "[Compound 54]", "values": [{"measurement": "Oat, Wild plant response rating", "setting": "[1]; [15]", "value": 85}, {"measurement": "Plant response rating, Oat, Wild", "setting": "[1]; [16]", "value": 90}, {"measurement": "Plant response rating, Oat, Wild", "setting": "[1]; [17]", "value": 98}, {"measurement": "Plant response rating, Oat, Wild", "setting": "[1]; [18]", "value": 98}, {"measurement": "Plant response rating, Oat, Wild", "setting": "[1]; [19]", "value": 75}, {"measurement": "Plant response rating, Oat, Wild", "setting": "[1]; [20]", "value": 95}, {"measurement": "Oat, Wild plant response rating", "setting": "[1]; [21]", "value": 40}, {"measurement": "Oat, Wild plant response rating", "setting": "[1]; [22]", "value": 70}, {"measurement": "Cocklebur plant response rating", "setting": "[2]; postemergence, 0-100 scale", "value": 0}, {"measurement": "Plant response rating, Cocklebur", "setting": "[2]; [16]", "value": 0}, {"measurement": "Plant response rating, Cocklebur", "setting": "[2]; [17]", "value": 0}, {"measurement": "Plant response rating, Cocklebur", "setting": "[2]; [18]", "value": 0}, {"measurement": "Plant response rating, Cocklebur", "setting": "[2]; [23]", "value": 0}, {"measurement": "Plant response rating, Cocklebur", "setting": "[2]; [24]", "value": 0}, {"measurement": "Plant response rating, Cocklebur", "setting": "[2]; [20]", "value": 0}, {"measurement": "Cocklebur plant response rating", "setting": "[2]; Preemergence, scale 0 to 100", "value": 0}, {"measurement": "Blackgrass plant response rating", "setting": "[3]; postemergence, 0-100 scale", "value": 45}, {"measurement": "Plant response rating, Blackgrass", "setting": "[3]; [16]", "value": 45}, {"measurement": "Plant response rating, Blackgrass", "setting": "[3]; [17]", "value": 70}, {"measurement": "Plant response rating, Blackgrass", "setting": "[3]; [18]", "value": 70}, {"measurement": "Plant response rating, Blackgrass", "setting": "[3]; [23]", "value": 90}, {"measurement": "Plant response rating, Blackgrass", "setting": "[3]; [24]", "value": 90}, {"measurement": "Plant response rating, Blackgrass", "setting": "[3]; [20]", "value": 90}, {"measurement": "Blackgrass plant response rating", "setting": "[3]; Preemergence, scale 0 to 100", "value": 60}, {"measurement": "Foxtail, Green plant response rating", "setting": "[4]; [15]", "value": 70}, {"measurement": "Plant response rating, Foxtail, Green", "setting": "[4]; [16]", "value": 95}, {"measurement": "Plant response rating, Foxtail, Green", "setting": "[4]; [17]", "value": 95}, {"measurement": "Plant response rating, Foxtail, Green", "setting": "[4]; [18]", "value": 100}, {"measurement": "Plant response rating, Foxtail, Green", "setting": "[4]; [24]", "value": 100}, {"measurement": "Plant response rating, Foxtail, Green", "setting": "[4]; [20]", "value": 100}, {"measurement": "Foxtail, Green plant response rating", "setting": "[4]; [21]", "value": 55}, {"measurement": "Foxtail, Green plant response rating", "setting": "[4]; [22]", "value": 95}, {"measurement": "Pigweed plant response rating", "setting": "[5]; [15]", "value": 0}, {"measurement": "Plant response rating, Pigweed", "setting": "[5]; [16]", "value": 0}, {"measurement": "Plant response rating, Pigweed", "setting": "[5]; [17]", "value": 0}, {"measurement": "Plant response rating, Pigweed", "setting": "[5]; [18]", "value": 0}, {"measurement": "Plant response rating, Pigweed", "setting": "[5]; [19]", "value": 0}, {"measurement": "Plant response rating, Pigweed", "setting": "[5]; [20]", "value": 0}, {"measurement": "Pigweed plant response rating", "setting": "[5]; [21]", "value": 0}, {"measurement": "Pigweed plant response rating", "setting": "[5]; [22]", "value": 0}, {"measurement": "Ragweed plant response rating", "setting": "[6]; [15]", "value": 0}, {"measurement": "Plant response rating, Ragweed", "setting": "[6]; [16]", "value": 0}, {"measurement": "Plant response rating, Ragweed", "setting": "[6]; [17]", "value": 0}, {"measurement": "Plant response rating, Ragweed", "setting": "[6]; [18]", "value": 0}, {"measurement": "Plant response rating, Ragweed", "setting": "[6]; [19]", "value": 0}, {"measurement": "Plant response rating, Ragweed", "setting": "[6]; [20]", "value": 0}, {"measurement": "Ragweed plant response rating", "setting": "[6]; [21]", "value": 0}, {"measurement": "Ragweed plant response rating", "setting": "[6]; [22]", "value": 0}, {"measurement": "Kochia plant response rating", "setting": "[7]; [15]", "value": 0}, {"measurement": "Plant response rating, Kochia", "setting": "[7]; [16]", "value": 0}, {"measurement": "Plant response rating, Kochia", "setting": "[7]; [17]", "value": 0}, {"measurement": "Plant response rating, Kochia", "setting": "[7]; [18]", "value": 0}, {"measurement": "Plant response rating, Kochia", "setting": "[7]; [24]", "value": 0}, {"measurement": "Nutsedge, Yellow plant response rating", "setting": "[8]; [15]", "value": 0}, {"measurement": "Plant response rating, Nutsedge, Yellow", "setting": "[8]; [16]", "value": 0}, {"measurement": "Plant response rating, Nutsedge, Yellow", "setting": "[8]; [17]", "value": 0}, {"measurement": "Plant response rating, Nutsedge, Yellow", "setting": "[8]; [18]", "value": 0}, {"measurement": "Plant response rating, Nutsedge, Yellow", "setting": "[8]; [19]", "value": 0}, {"measurement": "Plant response rating, Nutsedge, Yellow", "setting": "[8]; [20]", "value": 0}, {"measurement": "Nutsedge, Yellow plant response rating", "setting": "[8]; [21]", "value": 0}, {"measurement": "Nutsedge, Yellow plant response rating", "setting": "[8]; [22]", "value": 0}, {"measurement": "Crabgrass, Large plant response rating", "setting": "[9]; [15]", "value": 65}, {"measurement": "Plant response rating, Crabgrass, Large", "setting": "[9]; [16]", "value": 85}, {"measurement": "Plant response rating, Crabgrass, Large", "setting": "[9]; [17]", "value": 98}, {"measurement": "Plant response rating, Crabgrass, Large", "setting": "[9]; [18]", "value": 98}, {"measurement": "Plant response rating, Crabgrass, Large", "setting": "[9]; [24]", "value": 0}, {"measurement": "Plant response rating, Crabgrass, Large", "setting": "[9]; [20]", "value": 0}, {"measurement": "Crabgrass, Large plant response rating", "setting": "[9]; [21]", "value": 0}, {"measurement": "Crabgrass, Large plant response rating", "setting": "[9]; [22]", "value": 0}, {"measurement": "Corn plant response rating", "setting": "[10]; [15]", "value": 0}, {"measurement": "Plant response rating, Corn", "setting": "[10]; [16]", "value": 0}, {"measurement": "Plant response rating, Corn", "setting": "[10]; [17]", "value": 25}, {"measurement": "Plant response rating, Corn", "setting": "[10]; [18]", "value": 100}, {"measurement": "Plant response rating, Corn", "setting": "[10]; [24]", "value": 65}, {"measurement": "Plant response rating, Corn", "setting": "[10]; [20]", "value": 85}, {"measurement": "Corn plant response rating", "setting": "[10]; [21]", "value": 0}, {"measurement": "Corn plant response rating", "setting": "[10]; [22]", "value": 0}, {"measurement": "Lambsquarters plant response rating", "setting": "[11]; [15]", "value": 0}, {"measurement": "Plant response rating, Lambsquarters", "setting": "[11]; [16]", "value": 0}, {"measurement": "Plant response rating, Lambsquarters", "setting": "[11]; [17]", "value": 0}, {"measurement": "Plant response rating, Lambsquarters", "setting": "[11]; [18]", "value": 0}, {"measurement": "Plant response rating, Lambsquarters", "setting": "[11]; [24]", "value": 0}, {"measurement": "Plant response rating, Lambsquarters", "setting": "[11]; [20]", "value": 0}, {"measurement": "Lambsquarters plant response rating", "setting": "[11]; [21]", "value": 0}, {"measurement": "Lambsquarters plant response rating", "setting": "[11]; [22]", "value": 0}, {"measurement": "Cupgrass, Woolly plant response rating", "setting": "[12]; [15]", "value": 80}, {"measurement": "Plant response rating, Cupgrass, Woolly", "setting": "[12]; [16]", "value": 90}, {"measurement": "Plant response rating, Cupgrass, Woolly", "setting": "[12]; [17]", "value": 98}, {"measurement": "Plant response rating, Cupgrass, Woolly", "setting": "[12]; [18]", "value": 100}, {"measurement": "Plant response rating, Cupgrass, Woolly", "setting": "[12]; [24]", "value": 0}, {"measurement": "Plant response rating, Cupgrass, Woolly", "setting": "[12]; [20]", "value": 0}, {"measurement": "Cupgrass, Woolly plant response rating", "setting": "[12]; [21]", "value": 0}, {"measurement": "Cupgrass, Woolly plant response rating", "setting": "[12]; [22]", "value": 0}, {"measurement": "Plant response rating, Galium", "setting": "[13]; 62 g ai/ha", "value": 0}, {"measurement": "Galium plant response rating", "setting": "[13]; 8 g ai/ha", "value": 0}, {"measurement": "Galium plant response rating", "setting": "[13]; 16 g ai/ha", "value": 0}, {"measurement": "Velvetleaf plant response rating", "setting": "[14]; [15]", "value": 0}, {"measurement": "Plant response rating, Velvetleaf", "setting": "[14]; [16]", "value": 0}, {"measurement": "Plant response rating, Velvetleaf", "setting": "[14]; [17]", "value": 0}, {"measurement": "Plant response rating, Velvetleaf", "setting": "[14]; [18]", "value": 0}, {"measurement": "Plant response rating, Velvetleaf", "setting": "[14]; [19]", "value": 0}, {"measurement": "Plant response rating, Velvetleaf", "setting": "[14]; Preemergence, 62 g ai/ha, 0 to 100 scale, 0 no effect, 100 complete control", "value": 0}, {"measurement": "Velvetleaf plant response rating", "setting": "[14]; [21]", "value": 0}, {"measurement": "Velvetleaf plant response rating", "setting": "[14]; [22]", "value": 0}]}]}
